Experimental data taken from ChEMBL document CHEMBL1201862, “PubChem BioAssay data set” (2004).
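Method: 48-hour compound exposure of cells in 96-well plates, five concentrations, linear interpolation of endpoints. GI50: concentration for 50% inhibition of growth.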 Calls of active or inactive are those of the source. Cut-off read from the data, not from the text of the source: active = GI50 up to about 1.1 µM and inactive = higher.

What was measured:
Test in all cases: NCI anticancer screen, dose series, 48 h
NCI-H226 = test system: NCI-H226
SR = test system: SR
TK-10 = test system: TK-10
OVCAR-3 = test system: OVCAR-3
RXF 393 = test system: RXF 393
SF-295 = test system: SF-295
HOP-92 = test system: HOP-92
ACHN = test system: ACHN
OVCAR-5 = test system: OVCAR-5
CAKI-1 = test system: CAKI-1
CCRF-CEM = test system: CCRF-CEM
SF-539 = test system: SF-539
HOP-62 = test system: HOP-62
HL-60 = test system: HL-60
HCT-116 = test system: HCT-116
SK-MEL-28 = test system: SK-MEL-28
MDA-MB-435 = test system: MDA-MB-435
EKVX = test system: EKVX
NCI-H522 = test system: NCI-H522

Measured: GI50

CC(=O)c1c[nH]cc1CO
inactive: NCI-H226 > 10 µM | SR > 10 µM | TK-10 > 10 µM | OVCAR-3 > 10 µM | RXF 393 > 10 µM | SF-295 > 10 µM | HOP-92 > 10 µM | ACHN > 10 µM | OVCAR-5 > 10 µM | CAKI-1 > 10 µM | CCRF-CEM > 10 µM | SF-539 > 10 µM | HOP-62 > 10 µM | HL-60 > 10 µM | HCT-116 > 10 µM | SK-MEL-28 > 10 µM

O=C1Nc2ccccc2/C1=N/Nc1nc(-c2ccc([N+](=O)[O-])cc2)cs1
inactive: NCI-H226 38.9 µM | TK-10 17.5 µM | OVCAR-3 30.8 µM | MDA-MB-435 24.7 µM | EKVX 61 µM | SF-295 24.1 µM | HOP-92 17.4 µM | ACHN 13.3 µM | OVCAR-5 22 µM | CAKI-1 17.9 µM | SF-539 17.1 µM | HOP-62 > 100 µM | HCT-116 29.6 µM | SK-MEL-28 29.7 µM

COC(=O)C1=C(CCCCO[Si](C)(C)C(C)(C)C)NC(=O)N2[C@@H](CCOCc3ccccc3)CC[C@H]12
inactive: NCI-H522 11.1 µM | TK-10 40.3 µM | OVCAR-3 13.4 µM | MDA-MB-435 24 µM | EKVX 15.8 µM | SF-295 26 µM | HOP-92 15.5 µM | ACHN 29.1 µM | OVCAR-5 33.1 µM | CAKI-1 16.8 µM | CCRF-CEM 17.9 µM | HOP-62 24.2 µM | HCT-116 10.9 µM | SK-MEL-28 30.5 µM

CC(C)(C)OC(=O)NCCCCC(N)C(N)=O (stereo not drawn)
inactive: NCI-H226 > 100 µM | NCI-H522 > 100 µM | TK-10 > 100 µM | OVCAR-3 > 100 µM | MDA-MB-435 > 100 µM | EKVX > 100 µM | RXF 393 > 100 µM | SF-295 > 100 µM | HOP-92 > 100 µM | ACHN > 100 µM | OVCAR-5 > 100 µM | CAKI-1 > 100 µM | CCRF-CEM > 100 µM | SF-539 > 100 µM | HOP-62 > 100 µM | HCT-116 > 100 µM | SK-MEL-28 > 100 µM

Cc1c(C)c(S(=O)(=O)N(CCCN)OCCCN)c(C)c2c1OC(C)(C)C2
inactive: NCI-H226 72.1 µM | NCI-H522 15.5 µM | SR 34.8 µM | TK-10 45.5 µM | OVCAR-3 21.4 µM | MDA-MB-435 53.7 µM | EKVX 16.3 µM | RXF 393 15.2 µM | SF-295 29.8 µM | ACHN 29.6 µM | OVCAR-5 23.5 µM | CAKI-1 34.4 µM | CCRF-CEM 30 µM | HOP-62 35.6 µM | HCT-116 35.3 µM | SK-MEL-28 83.6 µM

C[N+](C)(C)c1ncnc2c1ncn2C1CCCO1 (stereo not drawn)
inactive: NCI-H226 > 100 µM | NCI-H522 > 100 µM | TK-10 > 100 µM | OVCAR-3 > 100 µM | MDA-MB-435 > 100 µM | EKVX > 100 µM | RXF 393 > 100 µM | SF-295 > 100 µM | HOP-92 > 100 µM | ACHN > 100 µM | OVCAR-5 > 100 µM | CCRF-CEM > 100 µM | SF-539 > 100 µM | HOP-62 > 100 µM | HL-60 56.4 µM | HCT-116 > 100 µM | SK-MEL-28 > 100 µM

C/C=C\C(CC(=O)NCCc1c[nH]c2ccccc12)CC(=O)OC (stereo not drawn)
inactive: NCI-H522 > 100 µM | TK-10 > 100 µM | OVCAR-3 > 100 µM | MDA-MB-435 > 100 µM | EKVX > 100 µM | RXF 393 > 100 µM | SF-295 > 100 µM | HOP-92 > 100 µM | ACHN > 100 µM | OVCAR-5 > 100 µM | CAKI-1 > 100 µM | HOP-62 > 100 µM | HCT-116 > 100 µM | SK-MEL-28 > 100 µM

N#CC(C#N)=C/C=C/c1ccccc1[N+](=O)[O-]
inactive: NCI-H226 > 10 µM | NCI-H522 3.33 µM | SR 3.54 µM | TK-10 > 10 µM | OVCAR-3 4.98 µM | EKVX > 10 µM | RXF 393 2.31 µM | SF-295 > 10 µM | HOP-92 5.08 µM | ACHN 4.26 µM | CAKI-1 5.04 µM | CCRF-CEM 7.57 µM | SF-539 6.76 µM | HOP-62 > 10 µM | HL-60 6.05 µM | HCT-116 1.87 µM | SK-MEL-28 2.11 µM

Cc1ccc(Cc2n[nH]c(=O)n2-c2ccccc2)cc1
inactive: NCI-H226 > 100 µM | SR > 100 µM | TK-10 > 100 µM | MDA-MB-435 > 100 µM | RXF 393 20.2 µM | SF-295 > 100 µM | ACHN > 100 µM | OVCAR-5 > 100 µM | CAKI-1 > 100 µM | SF-539 > 100 µM | HL-60 > 100 µM | HCT-116 > 100 µM | SK-MEL-28 > 100 µM

COc1ccc(/C=c2/sc3n(c2=O)C(c2ccccc2)C2(O)CCCCC2N=3)cc1 (stereo not drawn)
inactive: NCI-H226 > 12.5 µM | NCI-H522 > 12.5 µM | SR > 12.5 µM | TK-10 > 12.5 µM | OVCAR-3 > 12.5 µM | MDA-MB-435 > 12.5 µM | ACHN > 12.5 µM | OVCAR-5 > 12.5 µM | CAKI-1 > 12.5 µM | CCRF-CEM > 12.5 µM | HOP-62 > 12.5 µM | HL-60 > 12.5 µM | HCT-116 > 12.5 µM | SK-MEL-28 > 12.5 µM

CN1c2ccccc2C(=O)Nc2cnc(Cl)nc21
inactive: NCI-H226 > 100 µM | NCI-H522 64.6 µM | TK-10 > 100 µM | OVCAR-3 > 100 µM | MDA-MB-435 > 100 µM | EKVX > 100 µM | RXF 393 > 100 µM | SF-295 46.3 µM | HOP-92 35.7 µM | ACHN > 100 µM | OVCAR-5 > 100 µM | CAKI-1 > 100 µM | CCRF-CEM > 100 µM | SF-539 49.1 µM | HOP-62 31.1 µM | HL-60 > 100 µM | HCT-116 > 100 µM | SK-MEL-28 > 100 µM

CCN(CC)CCOc1ccccc1/C=C/c1noc2ccccc12
inactive: NCI-H226 16.3 µM | NCI-H522 8.17 µM | SR 11.7 µM | TK-10 15 µM | OVCAR-3 14.7 µM | EKVX 15.2 µM | RXF 393 2.75 µM | SF-295 16.2 µM | ACHN 12.7 µM | OVCAR-5 12.5 µM | CAKI-1 12.8 µM | CCRF-CEM 15.2 µM | SF-539 16 µM | HOP-62 14.4 µM | HL-60 7.76 µM | HCT-116 6.22 µM | SK-MEL-28 7.73 µM

C/C(=N\NC(=O)c1ccncc1)c1cccc(F)c1
inactive: NCI-H226 > 10 µM | SR > 10 µM | TK-10 > 10 µM | OVCAR-3 > 10 µM | RXF 393 > 10 µM | SF-295 > 10 µM | HOP-92 > 10 µM | ACHN > 10 µM | OVCAR-5 > 10 µM | CAKI-1 > 10 µM | CCRF-CEM > 10 µM | SF-539 > 10 µM | HOP-62 > 10 µM | HL-60 > 10 µM | HCT-116 > 10 µM | SK-MEL-28 > 10 µM
